Data reported in patent US20120065179A1, “PRODRUG COMPRISING BETA-KETO CARBOXYLIC ACID, BETA-KETO CARBOXYLIC ACID SALT OR BETA-KETO CARBOXYLIC ACID ESTER FOR DRUG DELIVERY” (YKI, Ytemiska Institutet AB, priority 2009, published 2012).
Where “and” joins values, the source holds several entries; their conditions need not be identical. Identical values can stand only once. Like-named read-outs stand apart in the source and are kept apart here.

What was measured:
[1] = cited from earlier work
[2] = Aqueous solubility of sodium beta-keto salt prodrug of Nabumetone (Example 13b); type: physicochemical
Description: 12.1 mg of the of ethyl-5-(6-methoxy-2-naphthyl)-beta-keto-pentanoate product prepared and purified as in Example 8 was mixed with 25 mL of a 0.5 M aqueous solution NaOH and homogenised on a vortex mixer. […] 15 minutes after preparation of the sample, the sample was transferred to an oil bath set at 37° C. with continuous gentle magnetic stirring, and kept there for 3.5 hours. Crystalline flakes remained in the sample at the end of the 3.5 hours heat-treatment, and the sample was thereafter centrifuged and the clear liquid above the sedimented crystals was analysed by HPLC as described above.
After storage around one hour at room temperature a fraction of the sample was then filtered twice through a 0.2 μm filter (Whatman, 0.2 μm PS) fitted to a syringe to give a clear solution. 200 μL of this filtered solution was transferred, in a tightly closed vessel, to an oil bath at 95° C. and kept at this temperature for about 5 hours to bring about quantitative decarboxylation of the labile, dissolved beta-keto carboxylic salt prodrug derivative of Nabumetone.
The heated sample was then mixed with 35 mL of mobile phase (see Example 1) whereby a few solid crystals (comprising Nabumetone) was seen to not dissolve. In order to assure a correct sampling for HPLC analysis, 5 mL of the 35 mL sample was filtered through a 0.2 μm filter, after the whole 35 mL sample had been pH adjusted to 4.21 by 300 μL 0.1 M HCl+100 μL 1 M HCl, to assure that the pH of the sample was close to the pH of the mobile phase itself (pH 4.30). The filtered solution was thereafter analysed by HPLC and found to contain 0.777 mg Nabumetone per liter. If recalculated to the corresponding concentration of nabumetone equivalents in the form of the beta-keto salt prodrug present in dissolved form in the filtered 200 μl sample that was subsequently heat-treated to form Nabumetone above, the obtained concentration corresponds to a Nabumetone concentration of 136.7 mg Nabumetone per liter in the clear aqueous solution, at room temperature, before the heat-treatment at 95° C.

[3] = Sustained release of Nabumetone from beta-keto sodium salt prodrug in phosphate buffer at blood pH and 37° C.; type: physicochemical; settings: phosphate buffer pH about 7.4, 37° C.
Description: 20.91 mg of the product synthesised as described in Example 8 (however in this case not purified by the chromatographic step in Example 8) was mixed with 1 ml 0.5 M NaOH at room temperature, whereby a portion of the sample was dissolved. After 30 minutes the mixture was placed in an oven at 37° C., and 10 μl samples was taken at regular intervals, diluted with 1 ml mobile phase (as in Example 1), and analyzed by HPLC, using UV-detection at 240 nm. 3.0 hours after initiation of the saponification reaction, the precursor (retention time 4.6 min) could no longer be detected, and the precursor peak was replaced by a peak from the intermediary beta-keto salt prodrug (retention time 2.3 minutes). At this point in time, a solution of 9 ml H2O and 0.0762 g NaH2PO4 was added to the sample, in order to create a NaH2PO4/Na2HPO4 pH buffer by neutralization of the NaOH remaining in the sample. […] The sample was again placed in the oven at 37° C. and the decarboxylation of the beta-keto salt in solution, gradually giving the commercially available drug Nabumetone, was followed by HPLC by taking 100 μl samples at regular intervals and diluting them with 1 ml mobile phase (see Example 1 above) before injection on the HPLC. It can be seen from the data that Nabumetone was continuously released into the solution via the spontaneous, non-enzymatic decarboxylation of the dissolved prodrug sodium salt, over a period of more than 120 hours. The half-life of the prodrug was estimated to be about 70 hours in this medium and under the conditions used.

[4] = pig, 2 mM, pH 6.63
[5] = Sustained release of acetophenone in vitro in model blood electrolyte solution at 37° C.; type: physicochemical; settings: formed from sodium benzoyl acetate, model blood electrolyte solution pH 7.4
Description: A 0.2 M solution of ethyl benzoyl acetate (90%, Sigma Aldrich) in 0.5 M NaOH (aq) was prepared at room temperature and stirred for typically 5-24 hours, still at room temperature. After this time a major part of the ethyl benzoyl acetate had been transformed into dissolved sodium benzoyl acetate, as evidenced by monitoring the reaction by analysis of samples by reversed phase HPLC. Some acetophenone and remaining ethyl benzoyl acetate were typically present in the samples, but in minor amounts. The method employed a C8 column with an inner diameter of 150×4.6 mm and 5 micron particles. The mobile phase consisted of 400 ml deionized water+600 ml acetonitrile+0.196 g H3PO4 (85%)+2.760 g NaH2PO4*H2O. The flow rate was set to 1.0 mL/min and UV detection at 254 nm was employed for analysis of the compounds ethylbenzoylacetate (precursor), benzoylacetate (model prodrug) and acetophenone (model drug).
Ethyl benzoyl acetate was saponified according to the description in Example 1, and after 7 hours a solution containing about 0.2 M of the sodium salt of benzoyl acetate was obtained.

C[C@]12CC[C@H]3[C@@H](CCC4=CC(=O)CC[C@@]43C)[C@@H]1CC[C@@H]2O [testosterone, (8R,9S,10R,13S,14S,17S)-17-hydroxy-10,13-dimethyl-1,2,6,7,8,9,11,12,14,15,16,17-dodecahydrocyclopenta[a]phenanthren-3-one]
Solubility ([1]; at 37° C., Okimotoa et al., 1999): 39 µg/mL

5-(6-methoxy-2-naphthyl)-beta-keto-pentanoate [Nabumetone beta-keto salt prodrug]
Solubility (mg/L, as Nabumetone equivalents) ([2]; clear aqueous solution (0.5 M NaOH) at room temperature, 0.2 μm filtered, before heat-treatment): 136.7 mg/L | Area at retention time 2.3 minutes characteristic for detection of the beta-keto anion ([2]; clear liquid after 3.5 h at 37° C. in 0.5 M NaOH, 200 μL diluted with 5.0 ml mobile phase): 36218 arbitrary units | half-life of the prodrug (estimated) [3]: about 70 hours | period over which Nabumetone was continuously released into the solution [3]: more than 120 hours | Nabumetone beta-keto salt prodrug (HPLC area @ retention time 2.3 min) ([3]; 3.25 h after initiation of saponification): 28341 | Nabumetone beta-keto salt prodrug (HPLC area @ retention time 2.3 min) ([3]; 5.1 h after initiation of saponification): 27144 | Nabumetone beta-keto salt prodrug (HPLC area @ retention time 2.3 min) ([3]; 21.45 h after initiation of saponification): 22542 | Nabumetone beta-keto salt prodrug (HPLC area @ retention time 2.3 min) ([3]; 24.25 h after initiation of saponification): 24102 and 21914 | Nabumetone beta-keto salt prodrug (HPLC area @ retention time 2.3 min) ([3]; 28.15 h after initiation of saponification): 19536 | Nabumetone beta-keto salt prodrug (HPLC area @ retention time 2.3 min) ([3]; 45.4 h after initiation of saponification): 18202 | Nabumetone beta-keto salt prodrug (HPLC area @ retention time 2.3 min) ([3]; 50 h after initiation of saponification): 18123 | Nabumetone beta-keto salt prodrug (HPLC area @ retention time 2.3 min) ([3]; 78 h after initiation of saponification): 9528 | Nabumetone beta-keto salt prodrug (HPLC area @ retention time 2.3 min) ([3]; 117 h after initiation of saponification): 9760 | Nabumetone beta-keto salt prodrug (HPLC area @ retention time 2.3 min) ([3]; 194 h after initiation of saponification): 1827

CC(=O)c1ccccc1 [acetophenone]
Solubility ([1]; tabulated solubility): 46 mM | Acetophenone concentration ([4]; 0.25 h): 0.09 mM | Acetophenone concentration ([4]; 1.33 h): 0.32 mM | Acetophenone concentration ([4]; 2.58 h): 0.50 mM | Acetophenone concentration ([4]; 4.75 h): 0.866 mM | Acetophenone concentration ([4]; 5.58 h): 0.866 mM | Acetophenone concentration ([4]; 6.58 h): 0.921 mM | Acetophenone concentration ([4]; 22.58 h): 1.34 mM | Acetophenone concentration ([4]; -0.17 h): 0.07 mM | Concentration of acetophenone (model drug) in sample ([5]; Time @ 37° C. 0.42): 160 µM | Concentration of acetophenone (model drug) in sample ([5]; Time @ 37° C. 2.25): 290 µM | Concentration of acetophenone (model drug) in sample ([5]; Time @ 37° C. 3.17): 380 µM | Concentration of acetophenone (model drug) in sample ([5]; Time @ 37° C. 4.17): 480 µM | Concentration of acetophenone (model drug) in sample ([5]; Time @ 37° C. 6.17): 400 µM | Concentration of acetophenone (model drug) in sample ([5]; Time @ 37° C. 8.25): 630 µM | Concentration of acetophenone (model drug) in sample ([5]; Time @ 37° C. 10.17): 730 µM | Concentration of acetophenone (model drug) in sample ([5]; Time @ 37° C. 12.17): 730 µM | Concentration of acetophenone (model drug) in sample ([5]; Time @ 37° C. 13.92): 900 µM | Concentration of acetophenone (model drug) in sample ([5]; Time @ 37° C. 17.92): 920 µM | Concentration of acetophenone (model drug) in sample ([5]; Time @ 37° C. 21.17): 1080 µM | Concentration of acetophenone (model drug) in sample ([5]; Time @ 37° C. 24.92): 950 µM | Concentration of acetophenone (model drug) in sample ([5]; Time @ 37° C. 31.33): 1110 µM | Concentration of acetophenone (model drug) in sample ([5]; Time @ 37° C. 48.75): 1550 µM | Concentration of acetophenone (model drug) in sample ([5]; Time @ 37° C. 76.33): 1890 µM
